According to article PMC8694152, “Mutasynthetic Production and Antimicrobial Characterization of Darobactin Analogs” (Microbiology Spectrum, 2021):
≈ marks a conversion by molar mass, not a printed value. Where “and” joins values, the source holds several entries; their conditions need not be identical. Identical values can stand only once.

Legend:
[1] = test system: Klebsiella pneumoniae DSM30104; type: cell-based; conditions: CAMHII, 18 h, at least 85 % growth inhibition
Experimental: (§1) For details, see the supplemental material.
(§2) 146 Mueller Hinton 2 broth (CAMHII). Darobactins were screened in 12 concentrations
(§3) The same concentrations were tested for
(§4) 148 rifampicin, tetracycline and gentamycin as positive controls. For tetracycline resistant
(§5) 151 Bacteria suspension without supplemented standard antibiotics or Darobactin
(§6) 152 was used as negative control.
(§7) 154 spectrophotometer at 600 nm. […]
(§8) 172 performed at least in triplicate.

E. coli K0416 = type: cell-based, Escherichia coli; conditions: CAMHII, 18 h, at least 85 % growth inhibition
Experimental: as §1, §2, §3, §4, §5, §6, §7
(§9) 171 control. After 24 h incubation, the MIC was determined. All MIC assays were
as §8

E. coli MMGI1 = type: cell-based, Escherichia coli; conditions: CAMHII, 18 h, at least 85 % growth inhibition
Experimental: as §1, §2, §3, §4, §5, §6, §7, §9, §8

E. coli NRZ14408 = type: cell-based, Escherichia coli; conditions: CAMHII, 18 h, at least 85 % growth inhibition
Experimental: as §1, §2, §3, §4, §5, §6, §7, §9, §8

E. coli Survcare052 = type: cell-based, Escherichia coli; conditions: CAMHII, 18 h, at least 85 % growth inhibition
Experimental: as §1, §2, §3, §4, §5, §6, §7, §9, §8

[2] = test system: Acinetobacter baumannii ATCC 19606; type: cell-based; conditions: CAMHII, 18 h, at least 85 % growth inhibition
Experimental: as §1, §2, §3, §4, §5, §6, §7, §9, §8

[3] = test system: Escherichia coli ATCC 35218; type: cell-based; conditions: CAMHII, 18 h, at least 85 % growth inhibition
Experimental: as §1, §2, §3, §4, §5, §6, §7, §9, §8

[4] = test system: Salmonella enterica ATCC 13076; type: cell-based; conditions: CAMHII, 18 h, at least 85 % growth inhibition
Experimental: as §1, §2, §3, §4, §5, §6, §7, §9, §8

[5] = test system: panel of clinically relevant Gram-negative pathogens; assay: MIC comparison with DAR A over the panel of test strains; type: cell-based; conditions: whole panel of test strains (Table 2)
Experimental: Therefore, additional clinical isolates of A. baumannii were tested.
as §1, §2, §3, §4, §5, §6
154 spectrophotometer at 600 nm. The MIC was defined as the minimum concentration
157 dilution as well, but without shaking. In aerobic conditions, overnight cultures of K.
Exponential cultures (OD 600 of
163 of test compound solutions diluted serially two-fold. After overnight incubation at 37 °C,
The MIC against Salmonella
167 conditions. Overnight cultures grown in brain–heart infusion (BHI) broth,
as §9, §8

various E. coli strains = assay: MIC comparison with DAR A against E. coli strains; type: cell-based, Escherichia coli
Description: New antibiotics, such as darobactin, with potency against these pathogens are desperately needed. […] This can be explained by the fact that this is the only derivative investigated not ending with the amino acid phenylalanine, which represents the most frequent amino acid of known and putative β signals from bacterial OM proteins ([7]). Therefore, DAR F would not block the β signal binding site and, thus, would not inhibit the function of BamA. […] Since Ser2 should eliminate the side chain interactions existing between Asn2 and Lys808 and Asn427 of the BamA β1 strand, it is likely that this greatly reduces DAR E’s affinity for the target and, thus, reduces its potency. In contrast to DAR A, DAR D carries an arginine in position 5 instead of lysine. If DAR A is bound to BamA, the Lys5 side chain points away from BamA, thereby enabling interaction with the negatively charged phosphate groups of phosphatidylglycerol and cardiolipin lipids ([7]). Supposedly, arginine could act similarly in the place of lysine, as arginine attracts more phosphate than lysine in membranes and can form more hydrogen bonds with phosphate clusters than lysine ([16]). Arginine is also capable of cardiolipin binding, a further important aspect of DAR and BamA binding ([17]).
as §1
146 Mueller Hinton 2 broth (CAMHII). Darobactins were screened in 12 concentrations […]

| Compound | MIC [1] | MIC (E. coli K0416) | MIC (E. coli MMGI1) | MIC (E. coli NRZ14408) | MIC (E. coli Survcare052) | MIC [2] | MIC [3] | MIC [4] | fold-higher MIC values than DAR A [5] | fold decrease in potency compared to DAR A (various E. coli strains) |
| --- | --- | --- | --- | --- | --- | --- | --- | --- | --- | --- |
| NCCCC1c2ccc3c(c[nH]c3c2)C2Oc3cccc4c(c[nH]c34)C[C@H](N)C(=O)N[C@@H](CO)C(=O)N[C@@H]2C(=O)N[C@@H](CO)C(=O)N[C@@H]1C(=O)N[C@@H](CO)C(=O)N[C@@H](Cc1ccccc1)C(=O)O (stereo partly shown) [DAR E, darobactin E] | 32 µg/mL (≈ 34.1 µM) | 32 µg/mL (≈ 34.1 µM) | 32 µg/mL (≈ 34.1 µM) | 32 µg/mL (≈ 34.1 µM) | 64 µg/mL (≈ 68.2 µM) | >64 µg/mL | 32 µg/mL (≈ 34.1 µM) | 32 µg/mL (≈ 34.1 µM) | 8- to 16 fold | 8- to 16 fold |
| N=C(N)NCCC1c2ccc3c(c[nH]c3c2)C2Oc3cccc4c(c[nH]c34)C[C@H](N)C(=O)N[C@@H](CC(N)=O)C(=O)N[C@@H]2C(=O)N[C@@H](CO)C(=O)N[C@@H]1C(=O)N[C@@H](CO)C(=O)N[C@@H](Cc1ccccc1)C(=O)O (stereo partly shown) [DAR D, darobactin D] | 64 µg/mL (≈ 64.4 µM) | 32 µg/mL (≈ 32.2 µM) | 64 µg/mL (≈ 64.4 µM) | 64 µg/mL (≈ 64.4 µM) | >64 µg/mL | >64 µg/mL | 64 µg/mL (≈ 64.4 µM) | 64 µg/mL (≈ 64.4 µM) | 8- to 16 fold and 16 fold |  |
